Measured values from patent publication US20240132477A1, “Benzimidazole Derivatives and Their Use As Inhibitors of ITK For The Treatment of Skin Disease” (PFIZER INC., priority 2020, published 2024).

Tests used:
[1] = target: Tropomyosin Receptor Kinase A (TRKA, NTRK1 enzyme) (Homo sapiens (Human), UniProt P04629); experiment: TRKA (NTRK1) ThermoFisher Z'-LYTE assay; format: biochemical; conditions: test compound 1 uM, ATP 1 mM; arithmetic mean of count n; read-out: TRKA % inhibition
Experimental: Tropomyosin Receptor Kinase a (TRKA) Activity, % Inhibition
TRKA, also known as neurotrophic tyrosine kinase receptor type 1 (NTKR1) activity was determined by measuring the effect of a test compound on the activity against the NTRK1 enzyme using the ThermoFisher Z′-LYTE Assay fluorescence-based coupled enzyme format (www.thermofisher.com/selectscreen). Test compounds were screened at a fixed concentration of 1 uM and the % inhibition was determined compared to controls at a fixed ATP concentration of 1 mM. The resulting effect value for the tested compound was compared to the assay controls to determine the % inhibition (%). % Inhibition (%) values for compounds of the invention are presented in the Table that follows.

[2] = target: IL-2-Inducible T-Cell Kinase (ITK) (Homo sapiens (Human), UniProt Q08881); experiment: ITK enzyme assay; format: biochemical; conditions: geometric mean of count n; ITK FL enzyme, BTK peptide substrate
Experimental: IL-2-Inducible T-Cell Kinase (ITK) Activity, IC50 (uM)
ITK activity was determined by measuring the effect of a test compound in an ITK enzyme assay.
1.0 M HEPES Buffer pH 7.5 solution was prepared as follows: 238.3 g HEPES free acid (Sigma) and 800 mL of water were combined, and the mixture was stirred until complete dissolution. The pH was adjusted to 7.5 via titration with 5N NaOH and the volume adjusted to 1000 mL. The solution was filtered and sterilized.
ITK assay buffer was prepared as follows: 50 mL of HPLC-grade water was treated with 2 mL of 1.0 M HEPES Buffer, 500 μL of 2% Gelatin (Sigma), 1.0 mL of aqueous MgCl2 solution (1.0 M), and 1.0 mL of aqueous glutathione solution (0.5 M), and the solution was mixed. The solution was brought to 99 mL in a graduated cylinder by addition of water and sterilized through a 0.2 μm filter. 0.1 mL of Brij-35™ Surfact-AmpS™ Detergent Solution (10% w/v aqueous solution, ThermoFisher) and 1.0 mL of ATP (Teknova, 100 mM) were added and the solution was mixed.
Preparation of 1.33×ITK enzyme solution was as follows: 49.99 mL of ITK assay buffer was treated with 4.1 μL of ITK enzyme (ITK FL (N-Flag and C-His tagged, ˜72 kDa) Lake Pharma, 0.25 mg/ml in a buffer containing 25 mM Tris pH 7.8, 150 mM NaCl, 10% glycerol and 2 mM TCEP) and the mixture was gently agitated. The resulting solution was stored on ice. 30 Minutes prior to use, the enzyme solution was removed from ice and equilibrated to RT by incubation in a RT water bath.
Preparation of 4×ITK substrate solution was as follows: 50 mL of ITK assay buffer was treated with 100 μL of BTK peptide (China Peptide Company, 2 mM stock solution in DMSO). The tube was capped, mixed by gently inverting the tube, and then stored on ice. 30 Minutes prior to use, the substrate solution was removed from ice and equilibrated to RT by incubation in a RT water bath.
At the time of assay, 7.5 μL of the 1.33×ITK enzyme solution was added to plate wells containing 0.1 μL of varying concentrations of test compound in DMSO. The plate was incubated 30 min at RT. The plate wells were each treated with 2.5 uL of the 4×ITK substrate solution and the plate was sealed (TopSeal™, Perkin Elmer). The plate was spun at 1000 rpm for 30 sec and then incubated for 60 min at RT. The seal was removed, and each well was treated with 10 μL of Stop/Detect Buffer (20 mM HEPES pH 7.5, 0.01% gelatin, 1 nM LANCE PT66 (Perkin Elmer), 16.5 μg/ml Surelight APC (Perkin Elmer), 10 mM EDTA, 250 mM NaCl). The plate was again covered and was spun at 1000 rpm for 30 seconds. The plate was allowed to incubate overnight at RT and in a closed carrier to reduce dehydration. The seal was removed, and the fluorescence was read with a plate reader with […]. The concentrations and resulting effect values for the tested compound were plotted and the concentration of compound required for 50% effect (IC50) was determined with the four-parameter logistic dose response equation.

[3] = tested on: IL-2 in supernatants from activated CD4+ human T-cells; experiment: IL-2 inhibition in supernatants from activated CD4+ human T-cells (cisbio HTRF); format: cell-based; conditions: T-cell; geometric mean of count n; activated CD4+ human T-cells, 20 to 24 hrs; read-out: IL-2 IC50
Experimental: IL-2-Inhibition Activity, IC50 (uM)
IL-2 inhibition activity in supernatants from activated CD4+ human T-cells was determined by measuring the effect of a test compound on the activity using the cisbio HTRF™ technology.
Human CD4+ T cells were activated with CD3/CD28 for 3 days and expanded for an additional 4-6 days (7 to 9 days total). On day 0, frozen CD4+ T cells were thawed, treated with CD3/CD28 Dynabeads, and incubated at 37° C./5% CO2. On day 3, the beads were removed, and the cells were diluted to 5×10^5 cells/cm^2, placed in G-Rex10 flask, and incubated at 37° C./5% CO2. On day 7 to day 9 the cells were removed from the G-Rex flasks, counted and diluted back to 1×10^6 cells/ml in standard tissue culture flask.
The expanded CD4+ T-cells were centrifuged at 300×g for 10 minutes and resuspended to 0.5 million cells per ml (30,000 cells/well). 60 μl of CD4+ T cells were added per well to a 384 well plate containing 0.1 μL of varying concentrations of test compound in DMSO. The plates were incubated for 15 min at 37° C./5% CO2. 20 μl of diluted ImmunoCult™ (STEMCELL Technologies, 1:12.5 in T cell assay media) were added to all wells of the plate (1:50 final assay concentration). The plates were incubated for an additional 20 to 24 hrs at 37° C./5% CO2. The plates were centrifuged at 300×g for 10 minutes. 16 μL of supernatant was removed and combined with 4 μl of IL-2 HTRF Abs. (cisbio kit). Plates were incubated for 3 hours at RT and read with an EnVision plate reader at 665 nm and 615 nm wavelengths. The concentrations and resulting effect values for the tested compound were plotted and the concentration of compound required for 50% effect (IC50) was determined with the four-parameter logistic dose response equation.

Sequence of IL-2-Inducible T-Cell Kinase (ITK) (Q08881 whole entry): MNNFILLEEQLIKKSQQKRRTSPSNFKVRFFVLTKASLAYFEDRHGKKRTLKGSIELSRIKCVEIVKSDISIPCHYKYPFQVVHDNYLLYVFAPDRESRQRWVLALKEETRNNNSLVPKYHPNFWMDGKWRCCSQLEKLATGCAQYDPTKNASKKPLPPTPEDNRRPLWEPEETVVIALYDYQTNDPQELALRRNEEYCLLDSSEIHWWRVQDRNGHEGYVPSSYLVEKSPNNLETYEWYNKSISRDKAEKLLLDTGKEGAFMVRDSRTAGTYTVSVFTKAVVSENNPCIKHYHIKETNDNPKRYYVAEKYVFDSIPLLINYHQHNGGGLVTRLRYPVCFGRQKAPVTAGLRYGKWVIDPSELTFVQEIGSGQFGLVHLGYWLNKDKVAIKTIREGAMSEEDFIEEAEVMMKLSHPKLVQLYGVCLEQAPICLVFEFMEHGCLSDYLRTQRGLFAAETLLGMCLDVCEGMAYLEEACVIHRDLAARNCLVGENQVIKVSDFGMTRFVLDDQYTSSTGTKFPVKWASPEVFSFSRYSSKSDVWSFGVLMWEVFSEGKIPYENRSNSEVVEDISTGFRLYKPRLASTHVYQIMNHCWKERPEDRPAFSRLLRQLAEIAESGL
Sequence of Tropomyosin Receptor Kinase A (TRKA, NTRK1 enzyme) (P04629 33-796): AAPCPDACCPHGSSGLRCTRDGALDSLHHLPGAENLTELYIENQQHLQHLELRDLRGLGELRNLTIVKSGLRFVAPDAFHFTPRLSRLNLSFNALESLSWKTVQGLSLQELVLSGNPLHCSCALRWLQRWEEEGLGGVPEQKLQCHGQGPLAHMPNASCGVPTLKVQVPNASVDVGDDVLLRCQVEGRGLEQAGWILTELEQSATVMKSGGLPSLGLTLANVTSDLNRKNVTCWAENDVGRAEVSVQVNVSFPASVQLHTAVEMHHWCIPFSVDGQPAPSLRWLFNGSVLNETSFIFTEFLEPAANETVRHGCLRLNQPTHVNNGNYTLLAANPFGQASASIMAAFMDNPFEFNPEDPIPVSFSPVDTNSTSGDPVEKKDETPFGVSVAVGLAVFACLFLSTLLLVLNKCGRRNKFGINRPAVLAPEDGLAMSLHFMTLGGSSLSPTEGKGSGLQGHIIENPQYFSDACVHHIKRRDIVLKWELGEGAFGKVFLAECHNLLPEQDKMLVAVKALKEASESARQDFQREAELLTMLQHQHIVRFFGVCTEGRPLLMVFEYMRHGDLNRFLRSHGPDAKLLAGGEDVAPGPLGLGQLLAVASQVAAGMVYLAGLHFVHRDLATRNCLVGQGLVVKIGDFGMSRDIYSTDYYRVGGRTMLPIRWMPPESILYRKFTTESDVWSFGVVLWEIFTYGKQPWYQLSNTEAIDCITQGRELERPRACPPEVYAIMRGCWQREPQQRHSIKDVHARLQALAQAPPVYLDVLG

Row | inhibition at 1 µM [1] [%] | IC50 [2] [nM] | IC50 [3] [nM] | Compound
1 | 97 | 5 | 62 | CC(=O)N(CC(=O)N(C)c1cc2nc(-c3n[nH]c4c3C[C@@H]3C[C@]3(C)C4)[nH]c2cc1C)C(C)C [Example 35, 2-(N-Isopropylacetamido)-N-methyl-N-(6-methyl-2-((4aS,5aR)-5a-methyl-1,4,4a,5,5a,6-hexahydrocyclopropa[f]indazol-3-yl)-1H-benzo[d]imidazol-5-yl)acetamide]
2 | 95 | 4 | 15 | CC(=O)N(C)c1ccc2[nH]c(-c3n[nH]c4c3C[C@@H]3C(F)(F)[C@]3(C)C4)nc2c1 [Example 2, N-(2-((4aS,5aR)-5,5-difluoro-5a-methyl-1,4,4a,5,5a,6-hexahydrocyclopropa[f]indazol-3-yl)-1H-benzo[d]imidazol-5-yl)-N-methylacetamide]
3 |  | 4 | 59 | Cc1cc2[nH]c(-c3n[nH]c4c3C[C@@H]3C[C@]3(C)C4)nc2cc1N(C)C(=O)CN1CCCCC1=O [Example 20, N-Methyl-N-(5-methyl-2-((4aS,5aR)-5a-methyl-1,4,4a,5,5a,6-hexahydrocyclopropa[f]indazol-3-yl)-1H-benzo[d]imidazol-6-yl)-2-(2-oxopiperidin-1-yl)acetamide]
4 |  | 5 | 53 | CCC(=O)N(C)c1cc2nc(-c3n[nH]c4c3C[C@@H]3C[C@]3(C)C4)[nH]c2cc1C [Example 33, N-Methyl-N-(6-methyl-2-((4aS,5aR)-5a-methyl-1,4,4a,5,5a,6-hexahydrocyclopropa[f]indazol-3-yl)-1H-benzo[d]imidazol-5-yl)propionamide]
5 |  | 47 | 196 | Cc1cc2[nH]c(-c3n[nH]c4c3C[C@@H]3C[C@]3(C)C4)nc2cc1N(C)C(=O)C(C)N1CCCCC1 (some centres unmarked) [Example 14]
6 |  | 74 | 268 | COC(C)(C)C(=O)N(C)c1cc2nc(-c3n[nH]c4c3C[C@@H]3C[C@]3(C)C4)[nH]c2cc1C [Example 39, 2-Methoxy-N,2-dimethyl-N-(6-methyl-2-((4aS,5aR)-5a-methyl-1,4,4a,5,5a,6-hexahydrocyclopropa[f]indazol-3-yl)-1H-benzo[d]imidazol-5-yl)propenamide]
7 |  | 5 | 43 | Cc1cc2[nH]c(-c3n[nH]c4c3C[C@@H]3C[C@]3(C)C4)nc2cc1N(C)C(=O)C(C)C [Example 22, N-Methyl-N-(5-methyl-2-((4aS,5aR)-5a-methyl-1,4,4a,5,5a,6-hexahydrocyclopropa[f]indazol-3-yl)-1H-benzo[d]imidazol-6-yl)isobutyramide]
8 |  | 7 | 57 | Cc1cc2[nH]c(-c3n[nH]c4c3C[C@@H]3C[C@]3(C)C4)nc2cc1N(C)C(=O)C(C)(C)F [Example 28, 2-Fluoro-N,2-dimethyl-N-(6-methyl-2-((4aS,5aR)-5a-methyl-1,4,4a,5,5a,6-hexahydrocyclopropa[f]indazol-3-yl)-1H-benzo[d]imidazol-5-yl)propenamide]
9 |  | 8 | 118 | Cc1cc2[nH]c(-c3n[nH]c4c3C[C@@H]3C[C@]3(C)C4)nc2cc1N(C)C(=O)C1(F)CC1 [Example 32, 1-Fluoro-N-methyl-N-(6-methyl-2-((4aS,5aR)-5a-methyl-1,4,4a,5,5a,6-hexahydrocyclopropa[f]indazol-3-yl)-1H-benzo[d]imidazol-5-yl)cyclopropane-1-carboxamide]
10 |  | 3 | 59 | Cc1cc2[nH]c(-c3n[nH]c4c3C[C@@H]3C[C@]3(C)C4)nc2cc1N(C)C(=O)CN1CCCOC1=O [Example 1, N-Methyl-N-(6-methyl-2-((4aS,5aR)-5a-methyl-1,4,4a,5,5a,6-hexahydrocyclopropa[f]indazol-3-yl)-1H-benzo[d]imidazol-5-yl)-2-(2-oxo-1,3-oxazinan-3-yl)acetamide]
11 |  | 54 | 370 | Cc1cc2[nH]c(-c3n[nH]c4c3C[C@@H]3C[C@]3(C)C4)nc2cc1N(C)C(=O)C(C)N1CCCC1=O (stereo partly drawn) [Example 18, N-Methyl-N-(5-methyl-2-((4aS,5aR)-5a-methyl-1,4,4a,5,5a,6-hexahydrocyclopropa[f]indazol-3-yl)-1H-benzo[d]imidazol-6-yl)-2-(2-oxopyrrolidin-1-yl)propenamide]
12 |  | 31 | 324 | C[C@@H](C(=O)N(C)c1cc(F)c2nc(-c3n[nH]c4c3C[C@@H]3C[C@]3(C)C4)[nH]c2c1)N1CCCOC1=O [Example 11, (S)-N-(4-fluoro-2-((4aS,5aR)-5a-methyl-1,4,4a,5,5a,6-hexahydrocyclopropa[f]indazol-3-yl)-1H-benzo[d]imidazol-6-yl)-N-methyl-2-(2-oxo-1,3-oxazinan-3-yl)propenamide]
13 |  | 23 | 118 | CCc1cc2[nH]c(-c3n[nH]c4c3C[C@@H]3C[C@]3(C)C4)nc2cc1N(C)C(C)=O [Example 16, N-(6-ethyl-2-((4aS,5aR)-5a-methyl-1,4,4a,5,5a,6-hexahydrocyclopropa[f]indazol-3-yl)-1H-benzo[d]imidazol-5-yl)-N-methylacetamide]
14 |  | 61 | 506 | CCC(C(=O)N(C)c1cc2nc(-c3n[nH]c4c3C[C@@H]3C[C@]3(C)C4)[nH]c2cc1C)N1CCCC1=O (stereo partly drawn) [Example 37, N-Methyl-N-(6-methyl-2-((4aS,5aR)-5a-methyl-1,4,4a,5,5a,6-hexahydrocyclopropa[f]indazol-3-yl)-1H-benzo[d]imidazol-5-yl)-2-(2-oxopyrrolidin-1-yl)butanamide]
15 |  | 16 | 86 | CCN(C(C)=O)c1cc2nc(-c3n[nH]c4c3C[C@@H]3C[C@]3(C)C4)[nH]c2cc1C [Example 5, N-ethyl-N-(6-methyl-2-((4aS,5aR)-5a-methyl-1,4,4a,5,5a,6-hexahydrocyclopropa[f]indazol-3-yl)-1H-benzo[d]imidazol-5-yl)acetamide]
